The record followed here is publication PMC11845477, “Exploring the principles behind antibiotics with limited resistance” (Nature Communications, 2025).

Values joined by “and” are separate entries in the source; they are usually repeats but may differ in a detail not shown here. Identical values can stand only once. Like-named read-outs stand apart in the source and are kept apart here. Where a SMILES comes first, the peptide text is derived from it. Bridges are numbered along the chain shown (N, C = ends). [ ]: non-standard residue; d: D form. The star is where a group is joined. X2 = CC[C@H](C)CCCCC(=O)*; Dab = NCC[C@H](N)C(=O)O

One assay concerns A. baumannii. The assay is described as follows: Bacterial survival at 10xMIC for 4 hours. In kind it is cell-based, Acinetobacter baumannii. Conditions: for Survival rate (log10): Acinetobacter baumannii, survival at 10xMIC for 4 hours, single replicates, (fig 9a source data). The method, then:
(§1) We employed image analysis to quantify bacterial survival under fixed antibiotic concentrations (10xMIC for 4 hours) on E. coli, A. baumannii, K. pneumoniae, and P. aeruginosa. […] Survival rate was quantified by calculating the ratio of the viable cells after antibiotic treatment and the total initial viable cell count.
(§2) Fig. 9 Killing kinetics of the studied antibiotics. a Bacterial survival rate in response to toxic antibiotic exposure. […] The bars indicate the survival rate (log10) compared to the untreated initial viable cell count (see “Methods”). Data are presented as mean values of 5 biological replicates ± SEM. The antibiotic group differentiation is denoted by color. […] Survival was estimated by measuring cell viability (colony-forming units/ml) of 2 biologically independent strains following a 4-hour exposure to different concentrations of 16 antibiotics on E. coli ATCC25922 (for further details, see “Methods”). The antibiotic concentration that kills 99.9% of the E. coli population is indicated as a vertical dotted line (see Supplementary Data 5). Error bars represent standard error calculated from the colony counts by Poisson’s model. A Hill function was fitted to the dose-response data from two biological replicates, producing sigmoidal curves (Supplementary Data 5). The Hill coefficient reflects how steeply the survival rate decreases in response to increasing antibiotic concentration ([…]). […] X-axis label colors indicate mode of action groups. For detailed information on antibiotic and bacterial species, see Supplementary Data 1. Source data are provided as a Source Data file.
(§3) In this current study, the killing kinetics of each antibiotic was measured according to a previously established experimental protocol[62] with minor modifications. During this assay, the bacterial cultures were exposed to antibiotics in 96-well assay plates and their viability after 4 hours of exposure was quantified by two methods: i) microplating and colony counting or ii) fluorescent staining of cells and counting of the fluorescent units.
(§4) Specifically, these experiments were performed in the following steps: (1) Preparation of bacterial stocks. Single colonies from each strain were isolated and grown overnight in MHB medium at 37 °C, 160 rpm. In case of the fluorescently tagged E. coli strains, the medium was supplemented with 10 μg/mL chloramphenicol, to maintain the pZS2R plasmid. Overnight cultures were diluted 1:5000 and grown to an optical density at 600 nm (OD600) of 0.25. These cultures were concentrated by centrifugation and small aliquots of 50 μL containing ~2.2 × 10^9 cells were frozen in glycerol (stored at −80 °C). (2) Preparing assay plates with antibiotics. 96-well plates were filled with 235 μL MHB and supplemented with antibiotics using an automated digital dispenser (D300e, Tecan). In the case of SCH79797, we used minimal media. […] For testing the clearance efficacy of each antibiotic at a single lethal dose, the 10x of the MIC for each antibiotic-strain pair were prepared in at least three replicates. (3) Antibiotic exposure. During the dose response assay, frozen cultures of the E. coli strains expressing YFP and mCherry were thawed and mixed at a 1:1 ratio, diluted 1:1000 in 30 mL MHB and incubated for 45 min at 37 °C and 160 rpm. During the single-dose assay, the frozen cultures of experimental strains (E. coli, K. pneumoniae, A. baumannii) were also thawed and diluted 1:1000 in 30 mL MHB and incubated at 37 °C to reach an OD of 0.25 and 160 rpm. Following this incubation phase, these bacterial cultures were then aliquoted into the 96-well deep-well antibiotic plates (15 μL culture; total volume of 250 μL) at an inoculum density of about 10^7 CFU.

For assay [1], the system named is P. aeruginosa ATCC BAA-3107 (SEN) and P. aeruginosa LESB58 (MDR). Put plainly: Frequency-of-resistance (FoR) assay, relative MIC of mutants. In kind it is cell-based, Pseudomonas aeruginosa. The method, then:
The susceptibility of antibiotics to resistance development was evaluated in two strains of each bacterial species: a multidrug-resistant strain and an antibiotic-sensitive strain of Escherichia coli, Klebsiella pneumoniae, Acinetobacter baumannii, and Pseudomonas aeruginosa. To explore first-step resistance, we previously used a standard protocol for spontaneous frequency-of-resistance analysis (FoR assay) at multiple concentrations of each antibiotic[10],[28],[31]–[33]. […] For all other combinations, approximately 10^10 bacterial cells were exposed to one of each antibiotic on agar plates for two days at concentrations where the given strain is susceptible. We examined resistance levels by contrasting the minimum inhibitory concentration (MICs) of the mutated strains to the original wild-type bacterial strain (i.e., relative MIC).
To estimate the frequency of spontaneous mutations that confer resistance in a microbial population, we conducted a frequency of resistance (FoR) assay following established protocols[10],[31]–[33]. […] Prior to plating, bacteria were grown overnight in MHB medium at 37 °C and 250 RPM, then centrifuged and washed in MHB. All experiments were performed in triplicate, and plates were incubated at 37 °C for 48 hours. Total colony-forming units (CFUs) were determined by plating appropriate dilutions onto antibiotic-free MHB agar. Resistance frequencies were calculated by dividing the number of resistant colonies by the initial viable cell count. From the plates with the highest antibiotic concentration, ten colonies were selected for MIC determination and whole-genome sequencing.
A robotic liquid handling system was used to automatically prepare a 11 to 16-step serial dilution in 384-well microtiter plates (Greiner). A final concentration of 5 × 10^5 bacterial cells per mL were inoculated into each well containing 60 µL MHB medium. Bacterial cultures were incubated at 37 °C with continuous shaking (Infors shaker, 900 rpm with 3 mm throw) for 18 hours (2 replicates from each). Cell growth was monitored by measuring the optical density (OD600 values, using Biotek Synergy microplate reader). MIC was defined as the antibiotic concentration of complete growth inhibition (i.e., OD600 < 0.05). Relative MIC was calculated as follows:1 relativeMIC=MICevolved/MICancestor […]
Supplementary Figure 3. Resistance levels following the frequency of resistance assay across bacterial strains. The level of resistance was measured as the fold change in relative MIC between evolved and ancestral strains. Data are grouped by bacterial strain (A. baumannii (AB), E. coli (EC), K. pneumoniae (KP), and P. aeruginosa (PA)) and categorized as either multidrug-resistant (MDR) or sensitive (SEN). Each data point represents a laboratory evolved line, and boxplots show the median, first and third quartiles, with whiskers indicating the 5th and 95th percentiles. […]
analysis was performed using two-sided Dunn’s post-hoc test with Benjamini-Hochberg correction for multiple comparisons (**/ * indicates p < 0.01/ 0.05). For detailed information on antibiotic and bacterial species, see Supplementary Table 1. For mode of action groups, refer to Table 1. Source data are provided as a Source Data file.

Another assay deals with P. aeruginosa. In kind it is cell-based, Pseudomonas aeruginosa. As to the method:
as §1, §2, §3, §4

Setting [2] is: P. aeruginosa ATCC BAA 3107 (PA-SEN), evolved line 1, evolved vs ancestor.
The mark [3] stands for this setting: P. aeruginosa ATCC BAA 3107 (PA-SEN), evolved line 2, evolved vs ancestor.
The mark [4] stands for this setting: P. aeruginosa ATCC BAA 3107 (PA-SEN), evolved line 3, evolved vs ancestor.
The mark [5] stands for this setting: P. aeruginosa ATCC BAA 3107 (PA-SEN), evolved line 1.
[6] abbreviates: P. aeruginosa ATCC BAA 3107 (PA-SEN), evolved line 2.
The mark [7] stands for this setting: P. aeruginosa ATCC BAA 3107 (PA-SEN), evolved line 3.
Setting [8] is: P. aeruginosa LESB 58 (PA-MDR), evolved line 1.
The mark [9] stands for this setting: P. aeruginosa LESB 58 (PA-MDR), evolved line 2.
Where [10] appears, read: P. aeruginosa LESB 58 (PA-MDR), evolved line 3.

On to `CN[C@@H]1[C@@H](O[C@H]2O[C@H](CO)[C@@H](N)[C@H](O)[C@H]2O)OC2C[C@@H](N)[C@@H](O[C@H]3[C@H](O)[C@@H](O)[C@H](N)C[C@@H]3N)OC2[C@@H]1O` (stereo partly shown) [Apramycin], for which, in the assay with A. baumannii (listed as APR), the “Survival rate (log10)” value is -1.378 log10 and -1.536 log10 and -1.241 log10 and -1.504 log10 and -1.3851 log10.
For `C[C@H]1c2cccc(O)c2C(=O)C2=C(O)[C@]3(O)C(=O)C(C(N)=O)=C(O)[C@@H](N(C)C)[C@@H]3[C@@H](O)[C@@H]21` [Doxycycline], the “Relative MIC” value in assay [1] (setting [2]), in assay [1] (setting [3]) and in assay [1] (setting [4]) was 32 in each case.
Regarding `O=c1ccc2ncc(=O)n3c2n1C[C@H]3CN1CCC(NCc2cc3c(cn2)OCCC3)CC1` [Gepotidacin], the MIC of evolved line in assay [1] (setting [5]) came out at 64 µg/mL; in assay [1] (setting [6]) it was 64 µg/mL; in assay [1] (setting [7]), 64 µg/mL; in assay [1] (setting [8]), 32 µg/mL; in assay [1] (setting [9]), 32 µg/mL; in assay [1] (setting [10]), 16 µg/mL. Moreover, the “Relative MIC” value in assay [1] (setting [2]) came to 16; in assay [1] (setting [3]), 16; in assay [1] (setting [4]), 16; in assay [1] (P. aeruginosa LESB 58 (PA-MDR), evolved line 1, evolved vs ancestor), 8; in assay [1] (P. aeruginosa LESB 58 (PA-MDR), evolved line 2, evolved vs ancestor), 8; in assay [1] (P. aeruginosa LESB 58 (PA-MDR), evolved line 3, evolved vs ancestor), 4.
Consider `C[C@@H](O)[C@H]1C(=O)N2C(C(=O)O)=C(S[C@@H]3CN[C@H](C(=O)N(C)C)C3)[C@H](C)[C@H]12` [Meropenem], for which the MIC of evolved line in assay [1] (setting [5]) is 2 µg/mL; in assay [1] (setting [6]), 2 µg/mL; in assay [1] (setting [7]) it was 2 µg/mL; in assay [1] (setting [8]) it was 32 µg/mL; in assay [1] (setting [9]) it was 32 µg/mL; in assay [1] (setting [10]), 32 µg/mL.
Consider `COc1c(N2C[C@@H]3CCCN[C@@H]3C2)c(F)cc2c(=O)c(C(=O)O)cn(C3CC3)c12` [Moxifloxacin], for which the values for the MIC of evolved line in assay [1] (setting [5]), in assay [1] (setting [6]) and in assay [1] (setting [7]) were 16 µg/mL, 32 µg/mL and 32 µg/mL, respectively.
Regarding `CC[C@H](C)CCCCC(=O)N[C@@H](CCN)C(=O)N[C@H](C(=O)N[C@@H](CCN)C(=O)N[C@H]1CCNC(=O)[C@H]([C@@H](C)O)NC(=O)[C@H](CCN)NC(=O)[C@H](CCN)NC(=O)[C@H](CC(C)C)NC(=O)[C@@H](Cc2ccccc2)NC(=O)[C@H](CCN)NC1=O)[C@@H](C)O` [Polymyxin B] (X2-[Dab]T[Dab][Dab][Dab][dF]L[Dab][Dab]T; lactam 4-C (inferred); N-terminus assumed), the “Survival rate (log10)” value in the assay with A. baumannii (listed as PMB) was -3.38 log10 and -2.762 log10 and -3.033 log10 and -2.9785 log10 and -2.974 log10; in the assay on P. aeruginosa (Pseudomonas aeruginosa, survival at 10xMIC for 4 hours, single replicates, (fig 9a source data), listed as PMB), -6 log10 and -3.379 log10.
As to `CC(C)c1ccc(Cn2ccc3c4c(N)nc(NC5CC5)nc4ccc32)cc1` [SCH79797], the “bacterial survival after toxic antibiotic exposure” value in the assay on A. baumannii (10xMIC for 4 hours) was “eliminated the entire bacterial population”. Also, in the assay with A. baumannii, the “Survival rate (log10)” value is on record as -6 log10.
Consider `C[C@@H](O)[C@H]1C(=O)N2C(C(=O)O)=C(S[C@H]3CC[S@@+]([O-])C3)S[C@H]12` [Sulopenem], for which, in the assay with A. baumannii (listed as SUO), the “Survival rate (log10)” value is -2.317 log10 and -2.432 log10 and -2.658 log10 and -2.635 log10.
Turning to POL7306, the “Survival rate (log10)” value in the assay with A. baumannii (listed as POL) was -3.645 log10 and -4.987 log10 and -2.756 log10 and -3.625 log10 and -3.539 log10; in the assay with P. aeruginosa, -6 log10; in the assay with P. aeruginosa (Pseudomonas aeruginosa, survival at 10xMIC for 4 hours, single replicates, (fig 9a source data), listed as POL), -2.602 log10 and -2.902 log10 and -2.057 log10.
Turning to Tridecaptin M152-P3, the “Survival rate (log10)” value in the assay with A. baumannii (listed as TRD) is -2.876 log10 and -2.59 log10 and -2.704 log10 and -2.72 log10 and -2.696 log10.
For colistin, the “Survival rate (log10)” value in the assay on A. baumannii (listed as COL) is -3.481 log10 and -3.59 log10 and -3.495 log10 and -4.987 log10 and -3.369 log10; in the assay on P. aeruginosa (Pseudomonas aeruginosa, survival at 10xMIC for 4 hours, single replicates, (fig 9a source data)), -6 log10. The “bacterial survival after toxic antibiotic exposure” value in the assay with P. aeruginosa (10xMIC for 4 hours) was “eliminate the full bacterial population”.
With polymyxin-B, the MIC of evolved line is 1 µg/mL in assay [1] (setting [5]); 1 µg/mL in assay [1] (setting [6]); 1 µg/mL in assay [1] (setting [7]); 4 µg/mL in assay [1] (setting [8]); 4 µg/mL in assay [1] (setting [9]); 4 µg/mL in assay [1] (setting [10]).
